According to patent US8114875B2, “Substituted N-heterocyclic compounds and their use as dopamine D3 receptor ligands” (Abbott GmbH & Co. KG, priority 2004, dated 2012):

Legend:
[1] = biological target: T1, human dopamine D2L receptors (long isoform) (Homo sapiens, UniProt P14416); experiment: Dopamine D2L receptor binding, displacement of [125I]-iodospiperone; conditions: ratio of Ki values from D3 and D2L binding assays, HEK-293 membranes
T1 construct: expressed in transfected cells; host or cells: HEK-293
T1 sequence (P14416 whole entry, canonical isoform): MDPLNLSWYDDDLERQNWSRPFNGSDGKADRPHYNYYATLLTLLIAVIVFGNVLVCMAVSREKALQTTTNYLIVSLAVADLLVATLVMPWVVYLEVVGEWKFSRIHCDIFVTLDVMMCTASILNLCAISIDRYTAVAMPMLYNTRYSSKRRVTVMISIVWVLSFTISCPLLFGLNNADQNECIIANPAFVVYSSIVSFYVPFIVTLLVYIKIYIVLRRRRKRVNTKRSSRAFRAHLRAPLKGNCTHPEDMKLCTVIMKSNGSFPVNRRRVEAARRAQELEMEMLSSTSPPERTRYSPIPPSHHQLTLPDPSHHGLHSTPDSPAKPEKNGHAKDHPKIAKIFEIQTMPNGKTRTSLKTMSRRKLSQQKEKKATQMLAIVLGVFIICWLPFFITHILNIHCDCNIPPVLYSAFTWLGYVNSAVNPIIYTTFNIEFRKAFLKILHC
Procedure: (§1) The substance to be tested was dissolved either in methanol/Chremophor® (BASFAG) or in dimethyl sulfoxide and then diluted with water to the desired concentration.
The mixture (1 ml) was composed of membranes from ˜10^6 HEK-293 cells with stably expressed human dopamine D2L receptors (long isoform) and 0.01 nM [^1251]-iodospiperone and incubation buffer (total binding) or with additional test substance (inhibition plot) or 1 μM haloperidol (nonspecific binding). Triplicate mixtures were carried out.
The incubation buffer contained 50 mM Tris, 120 mM NaCl, 5 mM KCl, 2 mM CaCl2, 2 mM MgCl2 and 0.1% bovine serum albumin. The buffer was adjusted to pH 7.4 with HCl.
(§2) Measurement and Evaluation:
(§3) After incubation at 25° C. for 60 minutes, the mixtures were filtered under vacuum through Whatman GF/B glass fiber filters using a cell harvester. The filters were transferred by a filter transfer system into scintillation vials. After addition of 4 ml of Ultima Gold® (Packard), the samples were shaken for one hour and then the radioactivity was counted in a beta counter (Packard, Tricarb 2000 or 2200CA). The cp values were converted into dpm by means of a standard quench series with the aid of the instrument's own program.
(§4) Evaluation of the inhibition plots took place by iterative nonlinear regression analysis using the Statistical Analysis System (SAS) similar to the “LIGAND” program described by Munson and Rodbard.

[2] = biological target: T2, human dopamine D3 receptors (Homo sapiens, UniProt P35462); experiment: Dopamine D3 receptor binding, displacement of [125I]-iodosulpride; conditions: membranes from HEK-293 cells with stably expressed human D3 receptors; 0.1 nM [125I]-iodosulpride; 25° C., 60 minutes
T2 construct: expressed in transfected cells; host or cells: HEK-293
T2 sequence (P35462 whole entry): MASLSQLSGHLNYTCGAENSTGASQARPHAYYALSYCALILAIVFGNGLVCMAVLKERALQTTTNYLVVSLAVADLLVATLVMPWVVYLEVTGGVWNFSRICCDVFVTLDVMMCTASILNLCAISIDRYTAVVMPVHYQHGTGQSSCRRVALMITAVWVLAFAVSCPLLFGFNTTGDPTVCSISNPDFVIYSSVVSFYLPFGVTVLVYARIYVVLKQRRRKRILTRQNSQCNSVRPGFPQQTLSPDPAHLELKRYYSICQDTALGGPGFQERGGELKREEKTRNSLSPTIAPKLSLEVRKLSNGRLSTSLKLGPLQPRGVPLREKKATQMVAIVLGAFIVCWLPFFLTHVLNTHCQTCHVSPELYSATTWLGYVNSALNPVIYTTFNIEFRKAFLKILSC
Procedure: as §1
The mixture (0.250 ml) was composed of membranes from ˜106 HEK-293 cells with stably expressed human dopamine D3 receptors, 0.1 nM [^125I]-iodosulpride and incubation buffer (total binding) or with additional test substance (inhibition plot) or 1 μM spiperone (nonspecific binding). Triplicate mixtures were carried out.
The incubation buffer contained 50 mM Tris, 120 mM NaCl, 5 mM KCl, 2 mM CaCl2, 2 mM MgCl2 and 0.1% bovine serum albumin, 10 μM quinolone, 0.1% ascorbic acid (prepared fresh each day). The buffer was adjusted to pH 7.4 with HCl.
as §2, §3, §4

Selectivity D3 vs. D2L (footnote: Ki(D2L)/Ki(D3)) [1]	Ki [2]	Structure (SMILES)
31	17 nM	Cc1ccn(CCCCN2CCN(Cc3ccc(Cl)cc3Cl)CC2)c(=O)n1 [Example 4, 1-{4-[4-(2,4-Dichlorobenzyl)piperazin-1-yl]butyl}-4-methyl-1H-pyrimidin-2-one]
99	10.6 nM	O=c1[nH]c(=O)n(CCCCN2CCN(Cc3ccc(Cl)cc3Cl)CC2)cc1F [Example 5, 1-{4-[4-(2,4-Dichlorobenzyl)piperazin-1-yl]butyl}-5-fluoro-1H-pyrimidine-2,4-dione]
51	18.1 nM	Cc1cn(CCCCN2CCN(Cc3ccc(Cl)c(Cl)c3)CC2)c(=O)[nH]c1=O [Example 10, 1-{4-[4-(3,4-Dichlorobenzyl)piperazin-1-yl]butyl}-5-methyl-1H-pyrimidine-2,4-dione]
48	22.3 nM	Cc1cn(CCCCN2CCN(Cc3ccc(F)cc3Cl)CC2)c(=O)[nH]c1=O [Example 11, 1-{4-[4-(2-Chloro-4-fluorobenzyl)piperazin-1-yl]butyl}-5-methyl-1H-pyrimidine-2,4-dione]

The next lines start with the compound.

Structure (SMILES)	Selectivity D3 vs. D2L (footnote: Ki(D2L)/Ki(D3)) [1]	Ki [2]
Cc1cn(CCCCN2CCN(Cc3ccc(Cl)cc3Cl)CC2)c(=O)[nH]c1=O [Example 1, 1-{4-[4-(2,4-Dichlorobenzyl)piperazin-1-yl]butyl}-5-methyl-1H-pyrimidine-2,4-dione]	98	8.9 nM
O=c1ccn(CCCCN2CCN(Cc3ccc(Cl)cc3Cl)CC2)c(=O)[nH]1 [Example 2, 1-{4-[4-(2,4-Dichlorobenzyl)piperazin-1-yl]butyl}-1H-pyrimidine-2,4-dione]	94	4.6 nM
O=c1nc(-c2ccccc2)ccn1CCCCN1CCN(Cc2ccc(Cl)cc2Cl)CC1 [Example 3, 1-{4-[4-(2,4-Dichlorobenzyl)piperazin-1-yl]butyl}-4-phenyl-1H-pyrimidin-2-one]	204	3.16 nM
